Measurements reported in patent US3985875A, “ω-(N-acylamino)alkylphosphoryl ethanolamines, pharmaceutical compositions containing them, and their uses” (Dainippon Pharmaceutical Co., Ltd., priority 1974, dated 1976).
Where two headings read alike, the source gives them in different places.

Tests used:
[1] = molecular target: T1, High renin plasma (Canis lupus familiaris, UniProt Q6DYE7); test: Renin-inhibitory activity, Method II (high renin plasma of dog, inhibition of Angiotensin I formation); format: biochemical; conditions: Table 2; 37°C, 4 hours, 1.25 mg/ml; read-out: Rate of inhibiting the formation of Angiotensin I determined by Method II
T1 construct: High renin plasma prepared by constriction of the renal artery of a dog anesthetized with Nembutal; from tissue; host or cells: plasma of a dog with constricted renal artery
T1 sequence (Q6DYE7 66-403): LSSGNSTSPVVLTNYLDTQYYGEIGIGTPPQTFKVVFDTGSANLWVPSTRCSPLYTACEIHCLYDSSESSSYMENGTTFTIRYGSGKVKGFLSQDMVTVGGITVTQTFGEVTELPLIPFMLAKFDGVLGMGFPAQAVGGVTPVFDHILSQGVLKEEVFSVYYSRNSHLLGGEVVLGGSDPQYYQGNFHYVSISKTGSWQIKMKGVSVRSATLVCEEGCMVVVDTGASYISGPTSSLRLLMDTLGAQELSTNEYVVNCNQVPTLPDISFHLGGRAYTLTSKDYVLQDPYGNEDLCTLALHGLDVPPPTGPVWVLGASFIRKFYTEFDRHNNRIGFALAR
Method: High renin plasma prepared by constriction of the renal artery of a dog anesthetized with Nembutal (the plasma which when incubated at 37°40 C. for 6 hours, yields 30 to […]. of Angiotensin I) was incubated at 37° C. for 2 to 6 hours in the same way as in Method I, and also under the same conditions in the presence of 1.25 mg/ml. of each of the test compounds.
(§1) The results are shown in Table 1 (the rate of inhibiting the formation of Angiotensin I, as determined by Method I, when the plasma was incubated at 37° C. for 2, 4 and 6 hours respectively), and Table 2 (the rate of inhibiting the formation of Angiotensin I when the plasma was incubated at 37° C. for 4 hours, with the compound concentration of 1.25 mg/ml.)

[2] = test system: renal hypertensive rats; test: Antihypertensive activity in rats, p.o. (Table 4); format: in vivo, rat; conditions: 100 mg/kg/day p.o.
Method: (§2) An aqueous solution or suspension in peanut oil of each test compound as administered intramuscularly (i.m.) or orally (p.o.) at a dose of 30 to 100 mg/kg (body weight)/day once every morning over the period of 6 to 7 days.
(§3) The blood pressure of each rat was measured daily before and 5 hours after each administration. Furthermore, the blood pressure was measured every morning after drug withdrawal over a period of 3 to 6 days.
(§4) Test compounds (1)-(4) decreased the blood pressure of renal hypertensive rats with a dose of 30 mg/kg/day i.m.. […] The antihypertensive rats with a dose of 100 mg/kg/day p.o..

[3] = test system: plasma cholesterol level; test: Cholesterol-lowering activity in rats (modified Greenberg method); format: in vivo, rat; conditions: 100 mg/Kg oral once a day, 5 consecutive days
Method: The effect of each of the test compounds on the plasma cholesterol level was examined in rats according to a slightly modified form of the C. M. Greenberg et al. method described in Am. J. Physiol., Vol. 202 (1961), p. 732. Rats were treated once a day with a 100 mg/Kg oral dose for 5 consecutive days instead of 7 days.

[4] = molecular target: T2, Renin (Homo sapiens, UniProt P00797); test: Renin-inhibitory activity, Method I (inhibition of Angiotensin I formation, RIA); format: biochemical; conditions: for inhibition at 313 µg/mL: 0.313 mg/ml; for inhibition at 625 µg/mL: 0.625 mg/ml; for inhibition at 1250 µg/mL: 1.25 mg/ml; for inhibition at 2500 µg/mL: 2.5 mg/ml
T2 sequence (P00797 67-406): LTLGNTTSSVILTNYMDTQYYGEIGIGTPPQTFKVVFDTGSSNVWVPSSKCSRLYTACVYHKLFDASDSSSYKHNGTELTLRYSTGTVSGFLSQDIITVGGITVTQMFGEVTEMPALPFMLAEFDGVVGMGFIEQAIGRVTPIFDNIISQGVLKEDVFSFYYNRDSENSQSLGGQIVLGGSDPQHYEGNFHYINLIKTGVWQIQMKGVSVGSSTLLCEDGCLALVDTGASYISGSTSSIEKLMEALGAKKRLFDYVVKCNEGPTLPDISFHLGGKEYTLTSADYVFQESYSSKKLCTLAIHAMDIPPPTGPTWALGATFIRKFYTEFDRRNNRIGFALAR
Method: Renin (see E. Haas et al. Circulation Research, Vol. 19, p. 739, 1966 and Vol. 31, p. 65, 1972) was incubated in Angiotensinogen at 37° C. for 2 to 6 hours. Similarly, renin was incubated under the same conditions in the presence of 0.313 to 2.5 mg/ml. of each of the test compounds listed above. The amount of Angiotensin I was measured by radioimmunoassay (RIA) (E. Haber et al., J. Clin. Endocrinol., Vol. 29, p. 1349, 1969), and made the renin activity.
as §1

[5] = test system: renal hypertensive rats; test: Antihypertensive activity in renal hypertensive rats, i.m. (Table 3); format: in vivo, rat; conditions: 30 mg/kg/day i.m.
Method: as §2, §3, §4

[6] = 1st day, 0 h (immediately before administration)
[7] = 1st day, 5 hours after administration
[8] = 2nd day, 0 h (immediately before administration)
[9] = 2nd day, 5 hours after administration
[10] = 3rd day, 0 h (immediately before administration)
[11] = 3rd day, 5 hours after administration
[12] = 4th day, 0 h (immediately before administration)
[13] = 4th day, 5 hours after administration
[14] = 5th day, 0 h (immediately before administration)
[15] = 5th day, 5 hours after administration
[16] = 6th day, 0 h (immediately before administration)
[17] = 6th day, 5 hours after administration
[18] = incubating time 2 hours, read-out: Rate of inhibiting the formation of Angiotensin I
[19] = incubating time 4 hours, read-out: Rate of inhibiting the formation of Angiotensin I
[20] = incubating time 6 hours, read-out: Rate of inhibiting the formation of Angiotensin I
[21] = Table 2, 37°C, 4 hours, read-out: Rate of inhibiting the formation of Angiotensin I determined by Method I

SMILES: CC(Oc1ccc(Oc2ccc(Cl)cc2)cc1)C(=O)NCCOP(=O)(O)OCCN (stereo not drawn) [Compound (6), 2-{α-[4-(4'-chlorophenoxy)phenoxy]propionylamino} ethylphosphoryl ethanolamine]
- inhibition at 1250 µg/mL [1]: 55%
- Changes of blood pressure after drug withdrawal ([2]; 1st day after withdrawal): -37 mmHg
- Changes of blood pressure [2, 6]: 0 mmHg
- Changes of blood pressure [2, 7]: -9 mmHg
- Changes of blood pressure after drug withdrawal ([2]; 2nd day after withdrawal): -32 mmHg
- Changes of blood pressure [2, 8]: +4 mmHg
- Changes of blood pressure [2, 9]: -4 mmHg
- Changes of blood pressure after drug withdrawal ([2]; 3rd day after withdrawal): -18 mmHg
- Changes of blood pressure [2, 10]: -14 mmHg
- Changes of blood pressure [2, 11]: -25 mmHg
- Changes of blood pressure after drug withdrawal ([2]; 4th day after withdrawal): -8 mmHg
- Changes of blood pressure [2, 12]: -18 mmHg
- Changes of blood pressure [2, 13]: -27 mmHg
- Changes of blood pressure after drug withdrawal ([2]; 5th day after withdrawal): -2 mmHg
- Changes of blood pressure [2, 14]: -27 mmHg
- Changes of blood pressure [2, 15]: -41 mmHg
- Changes of blood pressure after drug withdrawal ([2]; 6th day after withdrawal): +1 mmHg
- Changes of blood pressure [2, 16]: -34 mmHg
- Changes of blood pressure [2, 17]: -47 mmHg
- Changes of blood pressure ([2]; 7th day, 0 h (immediately before administration)): -36 mmHg
- Changes of blood pressure ([2]; 7th day, 5 hours after administration): -51 mmHg
- Cholesterol-lowering activity [3]: 48.1%
- inhibition at 313 µg/mL [4, 18]: 25%
- inhibition at 313 µg/mL [4, 19]: 33%
- inhibition at 313 µg/mL [4, 20]: 33%
- inhibition at 625 µg/mL [4, 18]: 50%
- inhibition at 625 µg/mL [4, 19]: 56%
- inhibition at 625 µg/mL [4, 20]: 53%
- inhibition at 1250 µg/mL [4, 18]: 75%
- inhibition at 1250 µg/mL [4, 19]: 78%
- inhibition at 1250 µg/mL [4, 20]: 67%
- inhibition at 2500 µg/mL [4, 18]: 100%
- inhibition at 2500 µg/mL [4, 19]: 93%
- inhibition at 2500 µg/mL [4, 20]: 89%
- inhibition at 1250 µg/mL [4, 21]: 78%

SMILES: CCC=CCC=CCC=CCCCCCCCC(=O)NCCOP(=O)(O)OCCN [(1), 2-(Octadeca-9,12,15-trienoylamino)ethylphosphoryl ethanolamine]
- inhibition at 1250 µg/mL [1]: 50%
- inhibition at 1250 µg/mL [4, 21]: 61%
- Changes of blood pressure after drug withdrawal ([5]; 1st day after withdrawal): -21 mmHg
- Changes of blood pressure [5, 6]: 0 mmHg
- Changes of blood pressure [5, 7]: -17 mmHg
- Changes of blood pressure after drug withdrawal ([5]; 2nd day after withdrawal): -13 mmHg
- Changes of blood pressure [5, 8]: -6 mmHg
- Changes of blood pressure [5, 9]: -33 mmHg
- Changes of blood pressure after drug withdrawal ([5]; 3rd day after withdrawal): -4 mmHg
- Changes of blood pressure [5, 10]: -8 mmHg
- Changes of blood pressure [5, 11]: -35 mmHg
- Changes of blood pressure [5, 12]: -16 mmHg
- Changes of blood pressure [5, 13]: -37 mmHg
- Changes of blood pressure [5, 14]: -20 mmHg
- Changes of blood pressure [5, 15]: -35 mmHg
- Changes of blood pressure [5, 16]: -24 mmHg
- Changes of blood pressure [5, 17]: -35 mmHg

SMILES: CCCCCC=CCC=CCCCCCCCC(=O)NCCCOP(=O)(O)OCCN [(4), 3-(Octadeca-9,12-dienoylamino)propylphosphoryl ethanolamine]
- inhibition at 1250 µg/mL [1]: 24%
- inhibition at 1250 µg/mL [4, 21]: 29%
- Changes of blood pressure after drug withdrawal ([5]; 1st day after withdrawal): -29 mmHg
- Changes of blood pressure [5, 6]: 0 mmHg
- Changes of blood pressure [5, 7]: -15 mmHg
- Changes of blood pressure after drug withdrawal ([5]; 2nd day after withdrawal): -12 mmHg
- Changes of blood pressure [5, 8]: -7 mmHg
- Changes of blood pressure [5, 9]: -20 mmHg
- Changes of blood pressure after drug withdrawal ([5]; 3rd day after withdrawal): -2 mmHg
- Changes of blood pressure [5, 10]: -12 mmHg
- Changes of blood pressure [5, 11]: -27 mmHg
- Changes of blood pressure [5, 12]: -22 mmHg
- Changes of blood pressure [5, 13]: -37 mmHg
- Changes of blood pressure [5, 14]: -28 mmHg
- Changes of blood pressure [5, 15]: -41 mmHg
- Changes of blood pressure [5, 16]: -27 mmHg
- Changes of blood pressure [5, 17]: -41 mmHg
